Calls of active or inactive are those of the source. The rule behind the calls is not given here.
Test: EBV protein-peptide binding inhibitors, dose response, biochemical, fluorescence polarization (AID 1419)
Settings: cell-free protein-peptide binding, 2 h; for fold change: measured here: P channel fold over control, at 54 µM

Row | SMILES | IC50 | fold change
1 | CCOC(=O)[C@]1(C#N)[C@@H]2C=CC(C(C)=O)=CN2[C@@H](C(N)=O)[C@@H]1c1ccsc1 | 4.35 µM | 3.68
2 | Nc1ccc(N)c(C(=O)O)c1 | 3.76 µM | 2.6
3 | CC(=O)N/N=C/c1cc(C(C)C)cc(/C=N/NC(C)=O)c1O | 2.84 µM | 4.18
4 | COc1ccc2nc(N3CCCC3)c(C#N)cc2c1 | < 0.42 µM | 16.7
5 | COc1ccc(C2C(C(=O)c3cccs3)=C(O)C(=O)N2c2nnc(C)s2)cc1OC (stereo unspecified) | 3.11 µM | 10.8
6 | CCOC(=O)c1cc(-c2ccc(/C=C3/C(=O)NC(=O)C(C#N)=C3C)o2)ccc1Cl | < 0.42 µM | 2.14
7 | Cc1nn(-c2ccccc2)c(N2CCCC2)c1/C=C1\N=C(c2ccccc2)OC1=O | 25.5 µM | 3.5
8 | CCCCNc1ccc2c3c(cccc13)C(=O)N(CCCC)C2=O | < 0.42 µM | 98.3
9 | O=[N+]([O-])c1ccccc1/C=C/C=N/n1c(-c2ccc(Cl)cc2)n[nH]c1=S | > 54 µM (inactive) | 0.947
10 | N=c1oc2cc(O)ccc2cc1C(=O)Nc1ccccn1 | 6.67 µM | 5.39
11 | O=C(N/N=C/c1cccc(F)c1)c1cc(-c2ccco2)nc2ccccc12 | 3.61 µM | 1.06
12 | N#C/C(=C\c1sc(N2CCOCC2)nc1-c1ccccc1)C(=O)Nc1cccc2ccccc12 | 30.8 µM (inactive) | 3.26
13 | COC(=O)c1ccccc1NC(=O)CCS(=O)(=O)c1ccc(Br)cc1 | 12.2 µM | 1.08
14 | CCC(=O)Nc1nc2n(n1)C(c1ccc(OC)cc1)C=C(c1ccccc1)N2 (stereo unspecified) | 5.14 µM | 2.8
15 | CN1CCN(c2ccc([N+](=O)[O-])c3no[n+]([O-])c23)CC1 | 1.32 µM | 11.6
16 | O=C(N=Nc1ccc(NOC(=O)c2ccccc2Br)cc1)c1ccccc1O | > 54 µM (inactive) | 0.957
17 | CC(=C/c1ccccc1)/C=N/NC(=O)c1cnccn1 | > 54 µM (inactive) | 1.1
18 | CN1C[C@H](CO)C=C2c3cccc4[nH]cc(c34)C[C@H]21 | 12.4 µM | 1.62
19 | CN1/C(=C\C=C\C2=[N+](C)c3ccc4ccccc4c3C2(C)C)C(C)(C)c2ccccc21 | 3.78 µM | 4.43
20 | COc1ccc(Nc2nc(=O)c3cc([N+](=O)[O-])ccc3s2)cc1 | > 54 µM (inactive) | 0.377
21 | CCCn1c(SCCc2ccccc2)nc2c1c(=O)[nH]c(=O)n2C | > 54 µM (inactive) | 0.953

Row | SMILES | IC50 | fold change
22 | O=C(CSc1ccsc1[N+](=O)[O-])Nc1cc(F)ccc1F | > 54 µM (inactive) | 1.05
23 | CCn1c(CSc2n[nH]c(N)n2)nc2cc(C(=O)O)ccc21 | 4.18 µM | 5.1
24 | CC1CCc2cccc3c2N1c1cc(C#N)c(C#N)cc1O3 (stereo unspecified) | 6.6 µM | 8.38
25 | C=CCSc1nccc(-c2cc(Cl)sc2Cl)n1 | > 54 µM (inactive) | 0.953
26 | COc1ccc(N=Nc2nc3cc(Br)c(Br)cc3n2C)c(OC)c1 | 2.95 µM | 5.37
27 | COc1ccccc1N1C(C)=CC(=C(C#N)c2nc3ccccc3s2)C=C1C | 9.03 µM | 27.7
28 | Oc1[nH]c2ccccc2c1N=Nc1ccccc1 | 18.8 µM | 21.6
29 | COC(=O)c1c(=O)n(O)c2ccc(OC)cc2[n+]1[O-] | 4.69 µM | 2.93
30 | CCN(CC)c1nc2ccccc2nc1C(C#N)C(=O)NCCc1ccccc1 (stereo unspecified) | 1.37 µM | 22
31 | COc1ccccc1N1C(=O)C2C(C(=O)c3ccccc3)=NN(c3ccccc3)C2C1=O (stereo unspecified) | 8.66 µM | 8.64
32 | COc1ccc(C2=CC(c3ccco3)n3ncnc3N2)cc1 (stereo unspecified) | 1.31 µM | 12.4
33 | Cc1cccc2cc3c(N)c(C(=O)N4CCCc5ccccc54)sc3nc12 | 9.62 µM | 4.66
34 | CCCN1C(=O)/C(=C\C=C2\N(CC)c3ccccc3C2(C)C)SC1=S | 3.39 µM | 20
35 | Nn1c(SCC(=O)NC(=O)NCc2ccco2)nnc1-c1ccc(OC(F)F)cc1 | 31.1 µM (inactive) | 1.09
36 | N=C1CCC(=N)c2c1c(O)c1ccccc1c2O | < 0.42 µM | 41.5
37 | Cc1ccc(N2C(=O)C3C(C(=O)c4ccccc4)=NN(c4ccccc4)C3C2=O)cc1 (stereo unspecified) | 7.31 µM | 8.5
38 | Cc1ccnc(N2C(=O)c3cccc4c([N+](=O)[O-])ccc(c34)C2=O)c1 | 3.48 µM | 2.33
39 | Cc1cc(/C=C(\C#N)c2nc3ccccc3[nH]2)c(C)n1C | 1.32 µM | 6.63
40 | CCCCn1c(=O)[nH]c2nc3cc(N)ccc3nc2c1=O | < 0.42 µM | 110
41 | Cc1cccc2cc(/C=C3\N=C(c4ccccc4)OC3=O)c(N3CCOCC3)nc12 | 13.2 µM | 12.5
42 | O=c1c(/C=C(\O)c2ccccc2)nc2ccccc2n1-c1ccccc1 | 14.1 µM | 27.6

Row | SMILES | IC50 | fold change
43 | Cc1ccc(N2C(=O)[C@@H]3[C@H](C2=O)C2c4ccccc4C=CN2[C@@H]3C(=O)c2ccco2)cc1 (stereo partly specified) | 5.71 µM | 2.76
44 | CCn1c2ccccc2c2cc(NC(=O)c3coc(=O)c(Br)c3)ccc21 | < 0.42 µM | 21.9
45 | COc1ccc(-c2cc(C(F)(F)F)c3c(n2)sc2c(O)cc(=O)[nH]c23)c(OC)c1 | 3.77 µM | 3.12
46 | N=c1oc2cc(O)ccc2cc1C(=O)Nc1nc2ccccc2s1 | 13 µM | 2.65
47 | COC(=O)c1cc(NC(=O)c2cccc(Cl)c2)c(=O)oc1/C=C/Nc1cc(C)cc(C)c1 | 4.37 µM | 22.8
48 | CCOc1cc(C=C2C(=O)c3ccccc3C2=O)ccc1OCC(=O)Nc1ccc(C)cc1 | 2.18 µM | 11.6
49 | CCOC(=O)/C(C#N)=C/c1cc2ccccc2nc1N1CCCCC1 | 27.1 µM | 2.2
50 | O=C1NC(=O)C2=Cc3ccc(O)cc3OC2(O)N1 (stereo unspecified) | < 0.42 µM | 100
51 | O=S(=O)([N-]c1nc2ccccc2nc1-[n+]1ccc(-c2ccncc2)cc1)c1ccccc1 | 9.13 µM | 3.54
52 | COc1cc(-c2ccc(Nc3ccccc3C(=O)O)c(OC)c2)ccc1Nc1ccccc1C(=O)O | > 54 µM (inactive) | 0.9
53 | CCN1CCN(CC(=O)N2N=C(c3cccs3)CC2c2ccc(OC)c(OC)c2)C(=O)C1=O (stereo unspecified) | > 54 µM (inactive) | 1.25
54 | C/C(=N/OC(=O)c1c(-c2c(Cl)cccc2Cl)noc1C)c1cnccn1 | > 54 µM (inactive) | 0.997
55 | Cn1c(=O)c2[nH]c(-c3ccccc3Cl)c(O)c2n(C)c1=O | 1.99 µM | 2.61
56 | CN1CCC2(CC1)C1CN(C)CC=C1C(C#N)=C(N)C2(C#N)C#N (stereo unspecified) | 2.49 µM | 7.69
57 | C=CCn1c(C)cc(C(=O)COC(=O)COc2ccccc2C#N)c1C | > 54 µM (inactive) | 1.04
58 | CCOc1cc(/C=C(\C#N)c2nc(-c3cccs3)c(NC(C)=O)s2)ccc1O | 3.62 µM | 5.84
59 | CCCn1nc(-c2ccccc2)c2nc3ccccc3nc21 | 2.37 µM | 32
60 | CCC1(CC)NC(=O)N(CC(=O)Nc2sc3c(c2C(N)=O)CCC3)C1=O | > 54 µM (inactive) | 1.23
61 | Nc1cc2nc3ccccc3nc2cc1N | < 0.42 µM | 24.2
62 | O=C1CCNc2c(Cl)cc(Cl)cc21 | 11.1 µM | 2.51
63 | O=C(N=Nc1c(O)[nH]c2ccccc12)c1cc(-c2cccs2)[nH]n1 | 19.6 µM | 0.72

Row | SMILES | IC50 | fold change
64 | O=C1Nc2cc(Cl)cnc2N2CCCC12 (stereo unspecified) | > 54 µM (inactive) | 1.68
65 | COc1ccc(C2C=C(c3ccc(Cl)cc3)Nc3nc(NC(C)=O)nn32)cc1 (stereo unspecified) | 5.59 µM | 3.32
66 | O=C1NC(=O)N(c2ccc(F)cc2)C(=O)/C1=C/c1ccc2c(c1)CCCN2Cc1ccccc1 | < 0.42 µM | 38
67 | O=C1CCNc2ccc(-c3ccccc3)cc21 | < 0.42 µM | 32.7
68 | COc1ccc(/C=C2\N=C(c3c(-c4ccccc4)noc3C)OC2=O)cc1OC | 15.9 µM | 3.56
69 | O=Cc1ccc2oc3nc4n(c(=O)c3c(=O)c2c1)CCCS4 | > 54 µM (inactive) | 1.03
70 | Cc1ccn(C(=O)c2ccc(NC(=O)C3CCCCC3)cc2)n1 | > 54 µM (inactive) | 0.987
71 | CC(C)Nc1nc(Cl)nc(N(C#N)CN2C(=O)c3ccccc3S2(=O)=O)n1 | > 54 µM (inactive) | 0.923
72 | Nc1cccc(C(=O)OCC(=O)Nc2cccc3c2C(=O)c2ccccc2C3=O)c1 | 1.81 µM | 2.03
73 | CC(=O)Nc1cccc(C2=CC(c3ccco3)n3ncnc3N2)c1 (stereo unspecified) | 1.48 µM | 20.3
74 | Cc1ccccc1N1C(=O)c2cccc3c(N(C)CCO)ccc(c23)C1=O | 0.74 µM | 14
75 | O=C(N/N=C/c1cc(Cl)cc(Cl)c1O)c1ccncc1 | 1.81 µM | 5.72
76 | O=C1Nc2ccc(Cl)cc2C12Nc1ccccc1-c1nnc(SCc3ccccc3F)nc1O2 (stereo unspecified) | 3.05 µM | 14.3
77 | Cc1ccc(-c2cc(-c3ccco3)c(C#N)c(=O)[nH]2)cc1 | > 54 µM (inactive) | 1.46
78 | CC(=O)N/N=C/c1cc(C(C)(C)C)cc(/C=N/NC(C)=O)c1O | 4.05 µM | 3.13
79 | Cn1c(=O)c(N)c2c3c(c(Br)ccc31)C(=O)c1ccccc1-2 | < 0.42 µM | 98.9
80 | CCc1cccc2cc3c(N)c(C(=O)Nc4ccc(S(=O)(=O)N5CCCC5)cc4)sc3nc12 | 1.63 µM | 8.07
81 | CN(CCC#N)C(=O)COC(=O)c1c2c(nc3ccccc13)/C(=C/c1ccco1)CC2 | 3.18 µM | 2.86
82 | C/C(N)=C(/C#N)C(=O)CSc1nnc(Nc2ccccc2)s1 | > 54 µM (inactive) | 0.95
83 | COc1ccccc1NC(=O)C(=O)N/N=C/c1ccc([N+](=O)[O-])s1 | > 54 µM (inactive) | 1.09

Source: PubChem BioAssay AID1419 (Emory University Molecular Libraries Screening Center, 2008)
